Results published in patent US20120270929A1, “MODULATION OF TTC39 EXPRESSION TO INCREASE HDL” (ISIS Pharmaceuticals, Inc., priority 2009, published 2012).
Oligonucleotides are written 5' to 3', each unit as a sugar letter and its base; * is a phosphorothioate linkage, no mark a phosphodiester; rarer units and linkages stand in square brackets, end groups in braces. Plain capitals give the bases only. e = 2'-O-(2-methoxyethyl) (MOE); [5mC] = 5-methylcytosine; d = 2'-deoxy (DNA)

Columns and labels:
Assay type in all cases: in vivo, mouse
[1] = tested on: Proprotein convertase subtilisin/kexin type 9 (Pcsk9) mRNA; assay: PCR microarray analysis of liver, LDLr-/- mice: Pcsk9; details: 6 weeks
Experimental: (§1) Four groups of five male mice each were injected with a total of 1.5, 5, 15, or 50 mg/kg/week of ISIS 447118 for 6 weeks. A group of five mice was injected with a total of 50 mg/kg/week of control oligonucleotide ISIS 141923 ([…], designated herein as SEQ ID NO: 112, which has no known murine target) for 6 weeks. A control group of five mice was injected with phosphate buffered saline (PBS) twice a week for 6 weeks. Plasma samples were obtained before the start of treatment, at week 3 and at week 6. At the end of the treatment period, the mice were euthanized. Plasma and tissue samples were obtained for further analysis.
(§2) Liver samples from the mice groups were analyzed using a commercial kit for PCR microarray analysis (SA Biosciences Corp., MD), according to the manufacturer's instructions. Genes involved in lipoprotein and cholesterol metabolism were compared with the PBS control.

[2] = tested on: Low density lipoprotein receptor (Ldlr) mRNA; assay: PCR microarray analysis of liver, LDLr-/- mice: Ldlr; details: 6 weeks
Experimental: as §1, §2

[3] = tested on: Oxysterol binding protein-like 5 (Osbpl5) mRNA; assay: PCR microarray analysis of liver, LDLr-/- mice: Osbpl5; details: 6 weeks
Experimental: as §1, §2

[4] = tested on: Apolipoprotein A-IV (ApoA4) mRNA; assay: PCR microarray analysis of liver, LDLr-/- mice: ApoA4; details: 6 weeks
Experimental: as §1, §2

[5] = tested on: Farnesyl diphosphate synthetase (Fdps) mRNA; assay: PCR microarray analysis of liver, LDLr-/- mice: Fdps; details: 6 weeks
Experimental: as §1, §2

Stabilin 1 (Stab1) mRNA = assay: PCR microarray analysis of liver, LDLr-/- mice: Stab1; details: 6 weeks
Experimental: as §1, §2

[6] = tested on: Mevalonate (diphospho) decarboxylase (Mvd) mRNA; assay: PCR microarray analysis of liver, LDLr-/- mice: Mvd; details: 6 weeks
Experimental: as §1, §2

[7] = tested on: Sterol O-acyltransferase 2 (Soat2) mRNA; assay: PCR microarray analysis of liver, LDLr-/- mice: Soat2; details: 6 weeks
Experimental: as §1, §2

[8] = tested on: Insulin induced gene 1 (Insig1) mRNA; assay: PCR microarray analysis of liver, LDLr-/- mice: Insig1; details: 6 weeks
Experimental: as §1, §2

[9] = Plasma cholesterol and triglycerides in LDLr-/- mice
Experimental: The LDLr knockout mice model is a model for familial hypercholesterolemia developed by Ishibashi et al (J Clin Invest 1993; 92: 883-893). On a normal chow diet, the mice have an average total cholesterol of 250 mg/dL due to increases in LDL and VLDL cholesterol. This model is therefore highly susceptible to atherosclerosis (Ishibashi et al Proc Natl Acad Sci USA 1994; 91: 4431-4435).
as §1
To investigate the effect of inhibition of TTC39B on triglycerides and cholesterol levels in the plasma, samples were collected on weeks 0, 3, and 6, and total plasma cholesterol, LDL cholesterol, HDL cholesterol, and triglycerides were analyzed on an Olympus AU400e Analyzer.

[10] = 1.5 mg/kg/week, Week 0 (before treatment)
[11] = 5 mg/kg/week, Week 0 (before treatment)
[12] = 15 mg/kg/week, Week 0 (before treatment)
[13] = 50 mg/kg/week, Week 0 (before treatment)

GCAGCTCGATTCGGGCATGA (antisense eG*e[5mC]*eA*eG*e[5mC]*dT*d[5mC]*dG*dA*dT*dT*d[5mC]*dG*dG*dG*e[5mC]*eA*eT*eG*eA) [ISIS 447118]
Pcsk9 fold increase/decrease relative to PBS group ([1]; 1.5 mg/kg): 0.83 fold
Pcsk9 fold increase/decrease relative to PBS group ([1]; 5 mg/kg): 0.66 fold
Pcsk9 fold increase/decrease relative to PBS group ([1]; 15 mg/kg): 0.4 fold
Pcsk9 fold increase/decrease relative to PBS group ([1]; 50 mg/kg): 0.23 fold
Ldlr fold increase/decrease relative to PBS group ([2]; 1.5 mg/kg): 1.43 fold
Ldlr fold increase/decrease relative to PBS group ([2]; 5 mg/kg): 1.28 fold
Ldlr fold increase/decrease relative to PBS group ([2]; 15 mg/kg): 1.79 fold
Ldlr fold increase/decrease relative to PBS group ([2]; 50 mg/kg): 2.87 fold
Osbpl5 fold increase/decrease relative to PBS group ([3]; 1.5 mg/kg): 1.7 fold
Osbpl5 fold increase/decrease relative to PBS group ([3]; 5 mg/kg): 2.34 fold
Osbpl5 fold increase/decrease relative to PBS group ([3]; 15 mg/kg): 3.11 fold
Osbpl5 fold increase/decrease relative to PBS group ([3]; 50 mg/kg): 2.11 fold
ApoA4 fold increase/decrease relative to PBS group ([4]; 1.5 mg/kg): 1.26 fold
ApoA4 fold increase/decrease relative to PBS group ([4]; 5 mg/kg): 1.38 fold
ApoA4 fold increase/decrease relative to PBS group ([4]; 15 mg/kg): 1.76 fold
ApoA4 fold increase/decrease relative to PBS group ([4]; 50 mg/kg): 2.7 fold
Fdps fold increase/decrease relative to PBS group ([5]; 1.5 mg/kg): 1.03 fold
Fdps fold increase/decrease relative to PBS group ([5]; 5 mg/kg): 0.84 fold
Fdps fold increase/decrease relative to PBS group ([5]; 15 mg/kg): 0.8 fold
Fdps fold increase/decrease relative to PBS group ([5]; 50 mg/kg): 0.66 fold
Stab1 fold increase/decrease relative to PBS group (Stabilin 1 (Stab1) mRNA; 1.5 mg/kg): 1.15 fold
Stab1 fold increase/decrease relative to PBS group (Stabilin 1 (Stab1) mRNA; 5 mg/kg): 1.19 fold
Stab1 fold increase/decrease relative to PBS group (Stabilin 1 (Stab1) mRNA; 15 mg/kg): 1.35 fold
Stab1 fold increase/decrease relative to PBS group (Stabilin 1 (Stab1) mRNA; 50 mg/kg): 1.53 fold
Mvd fold increase/decrease relative to PBS group ([6]; 1.5 mg/kg): 0.81 fold
Mvd fold increase/decrease relative to PBS group ([6]; 5 mg/kg): 0.7 fold
Mvd fold increase/decrease relative to PBS group ([6]; 15 mg/kg): 0.56 fold
Mvd fold increase/decrease relative to PBS group ([6]; 50 mg/kg): 0.67 fold
Soat2 fold increase/decrease relative to PBS group ([7]; 1.5 mg/kg): 1.05 fold
Soat2 fold increase/decrease relative to PBS group ([7]; 5 mg/kg): 0.88 fold
Soat2 fold increase/decrease relative to PBS group ([7]; 15 mg/kg): 1.36 fold
Soat2 fold increase/decrease relative to PBS group ([7]; 50 mg/kg): 1.79 fold
Insig1 fold increase/decrease relative to PBS group ([8]; 1.5 mg/kg): 0.96 fold
Insig1 fold increase/decrease relative to PBS group ([8]; 5 mg/kg): 0.84 fold
Insig1 fold increase/decrease relative to PBS group ([8]; 15 mg/kg): 0.68 fold
Insig1 fold increase/decrease relative to PBS group ([8]; 50 mg/kg): 0.67 fold
HDL cholesterol % increase on week 6 (% change over baseline) ([9]; 1.5 mg/kg/week): 36%
HDL cholesterol levels [9, 10]: 75 mg/dL
LDL cholesterol levels [9, 10]: 115 mg/dL
total cholesterol levels [9, 10]: 227 mg/dL
triglyceride levels [9, 10]: 126 mg/dL
HDL cholesterol levels ([9]; 1.5 mg/kg/week, Week 3): 71 mg/dL
LDL cholesterol levels ([9]; 1.5 mg/kg/week, Week 3): 116 mg/dL
total cholesterol levels ([9]; 1.5 mg/kg/week, Week 3): 217 mg/dL
triglyceride levels ([9]; 1.5 mg/kg/week, Week 3): 107 mg/dL
HDL cholesterol levels ([9]; 1.5 mg/kg/week, Week 6): 101 mg/dL
LDL cholesterol levels ([9]; 1.5 mg/kg/week, Week 6): 131 mg/dL
total cholesterol levels ([9]; 1.5 mg/kg/week, Week 6): 247 mg/dL
triglyceride levels ([9]; 1.5 mg/kg/week, Week 6): 142 mg/dL
HDL cholesterol % increase on week 6 (% change over baseline) ([9]; 5 mg/kg/week): 28%
HDL cholesterol levels [9, 11]: 88 mg/dL
LDL cholesterol levels [9, 11]: 112 mg/dL
total cholesterol levels [9, 11]: 234 mg/dL
triglyceride levels [9, 11]: 118 mg/dL
HDL cholesterol levels ([9]; 5 mg/kg/week, Week 3): 83 mg/dL
LDL cholesterol levels ([9]; 5 mg/kg/week, Week 3): 120 mg/dL
total cholesterol levels ([9]; 5 mg/kg/week, Week 3): 232 mg/dL
triglyceride levels ([9]; 5 mg/kg/week, Week 3): 122 mg/dL
HDL cholesterol levels ([9]; 5 mg/kg/week, Week 6): 112 mg/dL
LDL cholesterol levels ([9]; 5 mg/kg/week, Week 6): 130 mg/dL
total cholesterol levels ([9]; 5 mg/kg/week, Week 6): 261 mg/dL
triglyceride levels ([9]; 5 mg/kg/week, Week 6): 149 mg/dL
HDL cholesterol % increase on week 6 (% change over baseline) ([9]; 15 mg/kg/week): 45%
HDL cholesterol levels [9, 12]: 84 mg/dL
LDL cholesterol levels [9, 12]: 122 mg/dL
total cholesterol levels [9, 12]: 239 mg/dL
triglyceride levels [9, 12]: 120 mg/dL
HDL cholesterol levels ([9]; 15 mg/kg/week, Week 3): 82 mg/dL
LDL cholesterol levels ([9]; 15 mg/kg/week, Week 3): 133 mg/dL
total cholesterol levels ([9]; 15 mg/kg/week, Week 3): 249 mg/dL
triglyceride levels ([9]; 15 mg/kg/week, Week 3): 126 mg/dL
HDL cholesterol levels ([9]; 15 mg/kg/week, Week 6): 122 mg/dL
LDL cholesterol levels ([9]; 15 mg/kg/week, Week 6): 158 mg/dL
total cholesterol levels ([9]; 15 mg/kg/week, Week 6): 294 mg/dL
triglyceride levels ([9]; 15 mg/kg/week, Week 6): 131 mg/dL
HDL cholesterol % increase on week 6 (% change over baseline) ([9]; 50 mg/kg/week): 58%
HDL cholesterol levels [9, 13]: 78 mg/dL
LDL cholesterol levels [9, 13]: 99 mg/dL
total cholesterol levels [9, 13]: 207 mg/dL
triglyceride levels [9, 13]: 98 mg/dL
HDL cholesterol levels ([9]; 50 mg/kg/week, Week 3): 85 mg/dL
LDL cholesterol levels ([9]; 50 mg/kg/week, Week 3): 111 mg/dL
total cholesterol levels ([9]; 50 mg/kg/week, Week 3): 224 mg/dL
triglyceride levels ([9]; 50 mg/kg/week, Week 3): 96 mg/dL
HDL cholesterol levels ([9]; 50 mg/kg/week, Week 6): 124 mg/dL
LDL cholesterol levels ([9]; 50 mg/kg/week, Week 6): 146 mg/dL
total cholesterol levels ([9]; 50 mg/kg/week, Week 6): 282 mg/dL
triglyceride levels ([9]; 50 mg/kg/week, Week 6): 115 mg/dL
